{
  "source": "paper PMC10850954",
  "about": "“HDAC6/aggresome processing pathway importance for inflammasome formation is context-dependent” (The Journal of Biological Chemistry, 2024)",
  "key": {"U937 cells": {"system": "U937 cells", "test": "CTG cell viability assay", "type": "cell-based, human", "details": "U937, broad concentration range, 70 h", "protocol": "(§1) U937, Jurkat, and HEK293T cells were plated with a density of 10^5 cells/ml, with 50 μl/well in a white 384 well plate (Corning #3570). Two hours after plating, XY-07-035 was dispensed to each well using HPd300e and incubated at 37 °C for 70 h. CellTiter-Glo (CTG) Luminescent Cell Viability Assay (Promega #G7572) was then used to measure cell viability. Aliquoted frozen CTG reagent and cell plates were warmed to room temperature prior to loading. After the plates were cooled to room temperature, the CTG reagent was loaded 15 μl/well with an electronic multichannel pipette. […] The luminescence signal was read over ten cycles for each data point on a PHERAstar FS microplate reader (BMG Labtech). The Relative abundance was calculated as the sum of the averages of duplicate individual 12-point dose-response data points.\n(§2) Supplementary file mmc1.pdf: Supporting Figure S1 BMDM cells were primed by LPS (1 μg/ml) for 4 hrs and then challenged with 20 μM nigericin. 50 μl supernatant was collected every 15 min (up to 90 min) and mIL-1β level was determined by HTRF assay. […] DARPin F10 was detected by anti-HA antibody. […] Cells were treated with different concentrations of the degrader, and cell viability determined by CTG assay was normalized to the non-treated group. […] Supporting Figure S4: Cell viability was measured by resazurin assay, and fluorescence intensity was a representative of the viability."}, "HDAC6": {"molecular_target": "T1, HDAC6 (Homo sapiens, UniProt Q9UBN7)", "T1 sequence (Q9UBN7 1-1215)": "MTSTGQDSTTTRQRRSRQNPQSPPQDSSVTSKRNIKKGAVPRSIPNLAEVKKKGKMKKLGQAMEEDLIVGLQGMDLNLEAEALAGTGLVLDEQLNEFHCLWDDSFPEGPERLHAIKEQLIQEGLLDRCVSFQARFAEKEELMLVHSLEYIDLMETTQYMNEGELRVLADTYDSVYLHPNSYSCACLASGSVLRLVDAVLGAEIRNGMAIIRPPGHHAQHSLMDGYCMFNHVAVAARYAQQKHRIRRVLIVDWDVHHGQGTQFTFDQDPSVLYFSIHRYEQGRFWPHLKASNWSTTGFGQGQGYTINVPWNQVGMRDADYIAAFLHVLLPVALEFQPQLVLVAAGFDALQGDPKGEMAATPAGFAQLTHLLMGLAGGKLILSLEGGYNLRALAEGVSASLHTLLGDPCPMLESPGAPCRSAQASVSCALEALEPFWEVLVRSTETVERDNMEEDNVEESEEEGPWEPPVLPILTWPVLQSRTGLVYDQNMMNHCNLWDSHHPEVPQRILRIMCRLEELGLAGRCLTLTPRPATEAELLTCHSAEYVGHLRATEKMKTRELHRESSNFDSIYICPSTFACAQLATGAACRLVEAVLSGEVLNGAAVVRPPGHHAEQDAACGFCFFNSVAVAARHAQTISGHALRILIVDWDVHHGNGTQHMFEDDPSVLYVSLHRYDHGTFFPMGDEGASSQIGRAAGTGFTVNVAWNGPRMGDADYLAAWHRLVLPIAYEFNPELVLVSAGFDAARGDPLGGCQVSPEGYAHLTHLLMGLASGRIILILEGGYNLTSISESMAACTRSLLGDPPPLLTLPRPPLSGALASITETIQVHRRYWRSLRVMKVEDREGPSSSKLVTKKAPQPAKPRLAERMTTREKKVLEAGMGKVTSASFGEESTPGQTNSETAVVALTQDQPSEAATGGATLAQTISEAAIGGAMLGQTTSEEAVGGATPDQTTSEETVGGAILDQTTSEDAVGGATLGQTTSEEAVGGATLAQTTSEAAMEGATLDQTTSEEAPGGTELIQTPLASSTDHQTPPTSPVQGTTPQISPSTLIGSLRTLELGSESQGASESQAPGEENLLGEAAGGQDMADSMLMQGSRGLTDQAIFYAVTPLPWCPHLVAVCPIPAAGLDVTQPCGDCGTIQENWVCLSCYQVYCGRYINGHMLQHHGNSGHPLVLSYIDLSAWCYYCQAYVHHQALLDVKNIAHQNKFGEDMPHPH", "test": "HDAC6 degradation in THP-1 cells (immunoblot)", "type": "cell-based", "set-up": "endogenous in cells; host or cells: PBMCs (with or without LPS priming)", "details": "non-differentiated and PMA-differentiated THP-1 cells"}, "Jurkat cells": {"system": "Jurkat cells", "test": "CTG cell viability assay", "type": "cell-based", "details": "broad concentration range, 70 h", "protocol": "as §1, §2"}, "HEK293T cells": {"system": "HEK293T cells", "test": "CTG cell viability assay", "type": "cell-based", "details": "broad concentration range, 70 h", "protocol": "as §1, §2"}},
  "data": [
    {"smiles": "CN(C(=O)CCCNc1cccc2c1C(=O)N(C1CCC(=O)NC1=O)C2=O)c1ccc(NC(=O)CCCCCCC(=O)NO)cc1", "note": "(stereo not shown) [XY-07-35]", "values": [
      {"measurement": "cellular toxicity", "setting": "U937 cells", "result": "does not show cellular toxicity"},
      {"measurement": "HDAC6 degradation", "setting": "HDAC6", "result": "did not lead to HDAC6 degradation"},
      {"measurement": "cellular toxicity", "setting": "Jurkat cells", "result": "does not show cellular toxicity"},
      {"measurement": "cellular toxicity", "setting": "HEK293T cells", "result": "does not show cellular toxicity"}
    ]}
  ]
}
